From patent publication US20250034135A1, “ANTI-APOPTOTIC PROTEIN BCL-2 INHIBITOR, PHARMACEUTICAL COMPOSITION AND USES THEREOF” (HANGZHOU HEALZEN THERAPEUTICS CO., LTD., priority 2021, published 2025)
Read-outs that look alike come from different tables or passages of the source.

Columns and labels:
[1] = molecular target: BCL2 (Homo sapiens (Human), UniProt P10415); assay: Molecular level activity test of anti-apoptotic protein BCL2 (HTRF, binding to Bim peptide); details: HTRF, binding of BCL2 to Bim peptide; read-out: BCL2 nM (inhibitory activity, IC50)
In short: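 Step one: compound, supplied in 2% DMSO, is mixed with His-tagged BCL2 and biotinylated Bim peptide and reacted for 1 h. Step two: anti-His and streptavidin-XL665 reagents in detection buffer are added. Step three: after a 4 h room-temperature incubation, time-resolved fluorescence is measured.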

[2] = molecular target: BCL2 (G101V) (Homo sapiens (Human), UniProt P10415, G101V); assay: Molecular level activity test of anti-apoptotic protein BCL2 (G101V) (HTRF, binding to Bim peptide); details: inhibition of BCL2 (G101V) binding to Bim peptide, read-out: BCL-2 (G101V)
Procedure: (§1) The detection of the binding ability between anti-apoptotic protein BCL2 (G101V) and pro-apoptotic protein Bim was performed using Homogeneous Time-Resolved Fluorescence technology. The reaction of this method occurred in a white shallow 384-well plate, with a total reaction volume of 10 μL. Specifically, it included 2 μL of the compound to be tested (2% DMSO), 4 μL His-tagged recombinant protein, and 4 μL Biotin-tagged BIM protein peptide. After 1 hour of reaction, 5 L of each Anti-His and streptavidin-tagged XL665 antibody diluents diluted with a detection buffer were added. After incubating at room temperature for 4 hours, the values were read using the Envision multifunctional microplate reader to detect the effect of the compound to be tested on the binding ability of BCL2 (G101V) to BIM protein peptides.

[3] = molecular target: BCL2 (D103Y) (Homo sapiens (Human), UniProt P10415, D103Y); assay: Molecular level activity test of BCL2 (D103Y) (HTRF, binding to Bim peptide); details: read-out: BCL-2 (D103Y) (nM) (inhibitory activity, IC50)
Procedure: as §1, with “BCL2 (D103Y)” for “BCL2 (G101V)”, “5 μL” for “5 L”

[4] = tested on: RS4; 11 cells; assay: Tumor proliferation inhibitory activity test (MTS) on RS4; 11; type: cell-based; details: Homo sapiens, RS4-11, 72 h, 3 days incubation
Procedure: The cell proliferation inhibitory ability of the compounds on RS4; 11 was tested using the MTS method. MTS is a tetrazolium blue salt compound that can be reduced by various dehydrogenases in live cell mitochondria to their respective colored methylzan products. Its color depth is highly correlated with the number of live cells in certain sensitive cell lines within a certain range. RS4; 11, RS4; 11 (BCL-2-G101V) and MOLT-4 tumor cells were cultivated separately and collected, 180 μL of cell suspension was added to each well in a 96-well cell plate, 20 μL of DMSO with a final concentration of 0.2% was added to the control cell wells, 20 μL of gradient diluted compounds were added to cell wells, and the treated cells were incubated in a 5% CO2 incubator at 37° C. for 3 days. After the incubation was completed, the reaction solution was prepared according to the MTS reagent kit, 20 μL was added per well and incubated in a 5% CO2 incubator at 37° C. for 3-4 hours. The absorbance value at 490 nm was read using an enzyme-linked immunosorbent assay (ELISA) plate, and the absorbance value at 690 nm was used as the background value, with OD490 nm-OD690 nm as the final raw data. The formula for calculating the inhibition ratio of compounds was as follows: inhibition ratio=(ODDMSO−ODCompound)/(ODDMSO−ODblank)×100%.

[5] = molecular target: BCL-XL (Homo sapiens (Human), UniProt Q07817); assay: BCL-XL enzyme molecular level activity test (HTRF, binding to BIM peptide); details: binding of BCL-XL to BIM peptide, read-out: BCL-XL inhibitory activity (IC50)
BCL-XL, sequence (Q07817 whole entry): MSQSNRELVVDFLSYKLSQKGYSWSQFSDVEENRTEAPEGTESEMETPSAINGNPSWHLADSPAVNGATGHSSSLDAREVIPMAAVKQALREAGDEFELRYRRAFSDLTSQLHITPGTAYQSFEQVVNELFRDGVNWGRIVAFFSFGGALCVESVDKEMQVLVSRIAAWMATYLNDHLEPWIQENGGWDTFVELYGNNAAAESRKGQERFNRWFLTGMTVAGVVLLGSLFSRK
Procedure: In a white shallow 384-well plate, a total reaction volume was 10 μL. Specifically, it included 2 μL of the compound to be tested (2% DMSO), […] His-tagged recombinant protein, and 4 μL Biotin-tagged BIM protein peptide. After 1 hour of reaction, 5 μL of each Anti-His and streptavidin-tagged XL665 antibody diluents diluted with a detection buffer were added. After incubating at room temperature for 4 hours, the values were read using the Envision multifunctional microplate reader to detect the effect of the compound to be tested on the binding ability of BCL-XL to BIM protein peptides. The Envision parameter settings were exciting light at 320 nm, and emitting light at 615 nm and 665 nm. The binding ability of anti-apoptotic proteins to Bim protein peptides was indirectly reflected by the signal ratio of 665 nm and 615 nm. In the reaction, background wells without BCL2 and active wells for full binding of recombinant proteins without compounds and Bim protein peptides were set up.

| IC50 [1] [nM] | IC50 [2] [nM] | IC50 [3] [nM] | IC50 [4] [nM] | IC50 ([5]; values in nM) [nM] | IC50 ([5]; values given in μM) [nM] | Structure (SMILES) |
| --- | --- | --- | --- | --- | --- | --- |
| < 10 | < 10 | < 10 | 0.5 to 1 | > 500 | – | COc1cc(CN2CCN(C3CC4(CCN(c5cc(Oc6cnc7[nH]ccc7c6)c(C(=O)NS(=O)(=O)c6ccc(NCC7(F)CCOCC7)c([N+](=O)[O-])c6)cc5F)CC4)C3)[C@H](c3ccccc3C(C)C)C2)ccc1CN1CCCC1 [compound 248, (R)-2-((1H-pyrrolo[2,3-b]pyrid-5-yl)oxy)-5-fluoro-N-((4-(((4-fluorotetrahydro-2H-pyran-4-yl)methyl)amino)-3-nitrophenyl)sulfonyl)-4-(2-(2-(2-isopropylphenyl)-4-(3-methoxy-4-(pyrrolidin-1-ylmethyl)benzyl)piperazin-1-yl)-7-azaspiro[3.5]non-7-yl)benzamide] |
| < 10 | < 10 | < 10 | 0.5 to 1 | > 500 | – | COc1ccc(CN2CCN(C3CC4(CCN(c5cc(Oc6cnc7[nH]ccc7c6)c(C(=O)NS(=O)(=O)c6cc([N+](=O)[O-])c(NCC7CCOCC7)c7[nH]cnc67)cn5)CC4)C3)[C@H](c3ccccc3C(C)C)C2)cc1 [compound 267, (R)-4-((1H-pyrrolo[2,3-b]pyrid-5-yl)oxy)-6-(2-(2-(2-isopropylphenyl)-4-(4-methoxybenzyl)piperazin-1-yl)-7-azaspiro[3.5]non-7-yl)-N-((6-nitro-7-(((tetrahydro-2H-pyran-4-yl)methyl)amino)-1H benzo[d]imidazol-4-yl)sulfonyl) nicotinamide] |
| < 10 | < 10 | < 10 | 0.5 to 1 | > 500 | – | CC(C)c1ccccc1[C@@H]1CN(Cc2cnn(C)c2)CCN1C1CC2(CCN(c3cc(Oc4cnc5[nH]cc(F)c5c4)c(C(=O)NS(=O)(=O)c4ccc(NCC5(F)CCOCC5)c([N+](=O)[O-])c4)cc3F)CC2)C1 [compound 255, (R)-5-fluoro-2-((3-fluoro-1H-pyrrolo[2,3-b]pyrid-5-yl)oxy)-N-((4-(((4-fluorotetrahydro-2H-pyran-4-yl)methyl)amino)-3-nitrophenyl)sulfonyl)-4-(2-(2-(2-isopropylphenyl)-4-((1-methyl-1H-pyrazol-4-yl)methyl)piperazin-1-yl)-7-azaspiro[3.5]non-7-yl)benzamide] |
| < 10 | < 10 | < 10 | 0.5 to 1 | – | > 1000 | CC(C)c1ccccc1[C@@H]1CCCN1C1CC2(CCN(c3cc(Oc4cnc5[nH]ccc5c4)c(C(=O)NS(=O)(=O)c4cc([N+](=O)[O-])c(NCC5(F)CCN(C6COC6)CC5)c5[nH]cnc45)cn3)CC2)C1 [compound 019, (S)-4-((1H-pyrrolo[2,3-b]pyrid-5-yl)oxy)-N-((7-(((4-fluoro-1-(oxocyclobut-3-yl)piperid-4-yl)methyl)amino)-6-nitro-1H-benzo[d]imidazol-4-yl)sulfonyl)-6-(2-(2-(2-isopropylphenyl)pyrrolidin-1-yl)-7-azaspiro[3.5]non-7-yl) nicotinamide] |
| < 10 | < 10 | < 10 | 0.5 to 1 | – | 1600 | COc1ccc(CN2CCN(C3CC4(CCN(c5cc(Oc6cnc7[nH]ccc7c6)c(C(=O)NS(=O)(=O)c6cc([N+](=O)[O-])c(NCC7CCOCC7)c7c6OCO7)cc5F)CC4)C3)[C@H](c3ccccc3C(C)C)C2)cc1 [compound 120, (R)-2-((1H-pyrrolo[2,3-b]pyrid-5-yl)oxy)-5-fluoro-4-(2-(2-(2-isopropylphenyl)-4-(4-methoxybenzyl)piperazin-1-yl)-7-azaspiro[3.5]non-7-yl)-N-((6-nitro-7-(((tetrahydro-2H-pyran-4-yl)methyl)amino)benzo[d][1,3]dioxocyclopent-4-yl)sulfonyl)benzamide] |
| < 10 | < 10 | < 10 | 0.5 to 1 | > 500 | – | COc1ccc(CN2CCN(C3CC4(CCN(c5cc(Oc6cnc7[nH]cc(F)c7c6)c(C(=O)NS(=O)(=O)c6ccc(NCC7(F)CCOCC7)c([N+](=O)[O-])c6)cc5F)CC4)C3)[C@H](c3ccccc3C(C)C)C2)cn1 [compound 254, (R)-5-fluoro-2-((3-fluoro-1H-pyrrolo[2,3-b]pyrid-5-yl)oxy)-N-((4-(((4-fluorotetrahydro-2H-pyran-4-yl)methyl)amino)-3-nitrophenyl)sulfonyl)-4-(2-(2-(2-isopropylphenyl)-4-((6-methoxypyrid-3-yl)methyl)piperazin-1-yl)-7-azaspiro[3.5]non-7-yl)benzamide] |
| < 10 | < 10 | < 10 | 0.5 to 1 | > 500 | – | COc1ccc(CN2CCN(C3CC4(CCN(c5cc(Oc6cnc7[nH]ccc7c6)c(C(=O)NS(=O)(=O)c6ccc(NCC7(F)CCOCC7)c([N+](=O)[O-])c6)cc5F)CC4)C3)[C@H](c3ccccc3C(C)C)C2)cc1CN(C)C [compound 250, (R)-2-((1H-pyrrolo[2,3-b]pyrid-5-yl)oxy)-4-(2-(4-(3-((dimethylamino)methyl)-4-methoxybenzyl)-2-(2-isopropylphenyl)piperazin-1-yl)-7-azaspiro[3.5]non-7-yl)-5-fluoro-N-((4-(((4-fluorotetrahydro-2H-pyran-4-yl)methyl)amino)-3-nitrophenyl)sulfonyl)benzamide] |
| < 10 | < 10 | < 10 | < 0.5 | – | > 1000 | COc1ccc(CN2CCN(C3CC4(CCN(c5ccc(C(=O)NS(=O)(=O)c6cc([N+](=O)[O-])c(NCC7CCOCC7)c7c6OCO7)c(Oc6cnc7[nH]ccc7c6)c5)CC4)C3)[C@H](c3ccccc3C(C)C)C2)cc1 [compound 145, (R)-2-((1H-pyrrolo[2,3-b]pyrid-5-yl)oxy)-4-(2-(2-(2-isopropylphenyl)-4-(4-methoxybenzyl)piperazin-1-yl)-7-azaspiro[3.5]non-7-yl)-N-((6-nitro-7-(((tetrahydro-2H-pyran-4-yl)methyl)amino)benzo[d][1,3]dioxocyclopent-4-yl)sulfonyl)benzamide] |
| < 10 | < 10 | < 10 | 0.5 to 1 | – | > 20000 | COc1ccc(CN2CCN(C3CC4(CCN(c5cc(Oc6cnc7[nH]ccc7c6)c(C(=O)NS(=O)(=O)c6cc([N+](=O)[O-])c(NCC7CCOCC7)c7c6OCCO7)cc5F)CC4)C3)[C@H](c3ccccc3C(C)C)C2)cc1 [compound 265, (R)-2-((1H-pyrrolo[2,3-b]pyrid-5-yl)oxy)-5-fluoro-4-(2-(2-(2-isopropylphenyl)-4-(4-methoxybenzyl)piperazin-1-yl)-7-azaspiro[3.5]non-7-yl)-N-((7-nitro-8-(((tetrahydro-2H-pyran-4-yl)methyl)amino)-2,3-dihydrobenzo[b][1,4]dioxin-5-yl)sulfonyl)benzamide] |
